Measured values: patent US20100130549A1, “PSYCHOTROPIC COMPOUNDS, COMPOSITIONS AND METHODS OF USE” (priority 2007, published 2010)
“And” between values parts separate entries of the source, which are not always exact repeats. Identical values can stand only once.

Legend:
BALB/c mice [1] = assay: Elevated plus maze; settings: 10 mg/kg (equimolar) ip 1 hr prior
Description: The apparatus is made of wood and painted black, with two opposing open arms and two opposite enclosed arms of the same size. The arms are attached to a central square shaped in a plus sign. The whole apparatus is placed 50 cm above the floor. Anxious animals refrain from entry to the open arm and prefer the closed arm.
The data is presented as the mean±SEM of 12 animals.

ICR male mice = assay: Subchronic ip administration (toxicity); format: in vivo; settings: mouse, in vivo, ip, 30 mg/kg
Description: […]. Except for this local irritation no other toxicity was noted.
[…]. […] Except of these local irritations no other toxicity was noted.

ICR mice = assay: Acute toxicity, oral administration; format: in vivo; settings: for stimulation behavior (number of rearings): acute oral
Experimental: FIG. 11B illustrates the effect of administering the compound of formula (Ia) on stimulation in ICR mice.
Acute toxicity was assessed in male BALB/c mice that had been orally administered the compound of formula (Ta). The compound of formula (Ia) was administered orally to mice at doses of 20, 25, 75, and 100 mg/kg (4 animals/group). Animals were followed for behavioral changes such as stimulation (number of rearings), and sedation, after 24, 48 and 72 hr. Body weight was determined up to 7 days after drug administration.

Histamine H2 = Histamine H2 (Homo sapiens, UniProt P25021); assay: Radioligand binding assay, Histamine H2
Description: (§1) . Table 1 provides data produced via a receptor binding assay and IC50 and Ki determination. […] In addition, the compound of formula (Ia) has a potent DAT inhibition, which is indicative of dopaminergic uptake inhibition and increased DA activity. In addition to the effect on SERT and DAT, the compound of formula (Ia) inhibited the transporter of Norepinephrine (NET), and several neurotransmitter's receptors like alpha2A and alpha2C receptors, alpha 1A and alphal C, 5HT2A and 5HT2C, signal histamine2 and dopamine D1. This specific profile is in line with the data on antidepressant, anxiolytic and moderate neuro-stimulation activity observed in the animal model studies.
(§2) With regard to the data provided in Table 1, the biochemical assay results are presented as the percent inhibition of specific binding or activity throughout the report. For primary assays, only the lowest concentration with a significant response judged by the assays’ criteria, is shown in this summary. […] Unless otherwise requested, primary screening in duplicate with quantitative data (e.g., IC50±SEM, Ki±SEM and nH) are shown.

Adrenergic α2A = target: T1, Adrenergic α2A (Homo sapiens, UniProt P08913); assay: Radioligand binding assay, Adrenergic α2A
T1 construct: 203620
T1 sequence (P08913 1-465): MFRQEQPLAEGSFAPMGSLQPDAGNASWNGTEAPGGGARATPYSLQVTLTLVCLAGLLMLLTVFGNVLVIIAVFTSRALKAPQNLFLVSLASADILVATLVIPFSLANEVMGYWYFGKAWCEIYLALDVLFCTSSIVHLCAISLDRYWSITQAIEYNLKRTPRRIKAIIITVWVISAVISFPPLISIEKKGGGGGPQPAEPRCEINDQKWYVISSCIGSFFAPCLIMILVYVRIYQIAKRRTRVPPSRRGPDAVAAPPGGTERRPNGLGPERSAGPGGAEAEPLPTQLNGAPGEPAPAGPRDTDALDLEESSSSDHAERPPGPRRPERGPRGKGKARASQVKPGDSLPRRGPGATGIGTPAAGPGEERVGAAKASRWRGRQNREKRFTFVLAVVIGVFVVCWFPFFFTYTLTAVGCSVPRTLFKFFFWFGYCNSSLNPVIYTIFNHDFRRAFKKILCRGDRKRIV
Description: as §1, §2

[2] = target: Trasnporter, Dopamine (DAT) (Homo sapiens, UniProt Q01959); assay: Radioligand binding assay, Dopamine transporter
Description: as §2

Dopamine D1 = Dopamine D1 (Homo sapiens, UniProt P21728); assay: Radioligand binding assay, Dopamine D1
Description: as §1, §2

Adrenergic α1A = target: T2, Adrenergic α1A (Rattus norvegicus, UniProt P43140); assay: Radioligand binding assay, Adrenergic α1A
T2 sequence (P43140 1-466): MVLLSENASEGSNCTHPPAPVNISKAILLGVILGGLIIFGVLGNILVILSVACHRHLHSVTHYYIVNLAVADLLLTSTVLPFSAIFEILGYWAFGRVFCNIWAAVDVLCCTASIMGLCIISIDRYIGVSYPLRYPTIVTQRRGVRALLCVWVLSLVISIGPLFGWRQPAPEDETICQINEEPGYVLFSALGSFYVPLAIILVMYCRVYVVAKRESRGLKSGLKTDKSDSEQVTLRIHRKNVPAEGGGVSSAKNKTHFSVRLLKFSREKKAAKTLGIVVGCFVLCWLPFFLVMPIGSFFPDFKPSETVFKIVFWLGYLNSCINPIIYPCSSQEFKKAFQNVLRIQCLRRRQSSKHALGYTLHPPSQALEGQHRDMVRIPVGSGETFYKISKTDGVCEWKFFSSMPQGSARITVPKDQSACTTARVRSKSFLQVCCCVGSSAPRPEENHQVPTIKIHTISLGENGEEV
Description: as §1, §2

[3] = target: Transporter, Norepinephrine (NET) (Homo sapiens, UniProt P23975); assay: Radioligand binding assay, Norepinephrine transporter
Description: as §1, §2

BALBc male mice = assay: Hot plate test; format: in vivo; settings: 10 mg/kg orally (sertraline equimolar)
Description: The hot-plate test is widely used to measure pain sensation. The latency in response to heat of mice and rats feet is based on the method described by Eddy et al., Synthetic analgesics. II. […] The method is based on placing an animal on heated (52-56 C) surface and measuring the time to response (raising paw, licking of the paw, jumping or running.
The animals were followed for 6 hr.

BALB/c mice [4] = assay: Rotor rod test (motor activity); format: in vivo; settings: 10 mg/kg p.o., 90 min after administration; vs controls
Experimental: The test was performed 90 min after oral administration of the compounds. […] The rotor rod test involves placing the mouse on an elevated rotating bar. In this test, the mouse is placed on the bar such that it is facing the direction opposite to the rotation of the rod. The time lag to fall is determined.

[5] = target: Transporter, Serotonin (5-Hydroxytryptamine) (SERT) (Homo sapiens, UniProt P31645); assay: Radioligand binding assay, Serotonin transporter
Description: as §2

Chain of Histamine H2 (P25021 whole entry): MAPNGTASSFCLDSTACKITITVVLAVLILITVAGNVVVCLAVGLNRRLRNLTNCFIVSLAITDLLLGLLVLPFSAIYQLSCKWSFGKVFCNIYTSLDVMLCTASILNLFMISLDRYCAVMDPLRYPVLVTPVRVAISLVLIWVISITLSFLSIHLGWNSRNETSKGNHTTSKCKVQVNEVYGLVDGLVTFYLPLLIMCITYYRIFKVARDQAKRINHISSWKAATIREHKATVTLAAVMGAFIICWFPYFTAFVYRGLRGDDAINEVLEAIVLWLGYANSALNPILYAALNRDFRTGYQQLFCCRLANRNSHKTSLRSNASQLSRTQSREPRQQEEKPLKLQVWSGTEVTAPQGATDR
Chain of Dopamine D1 (P21728 whole entry): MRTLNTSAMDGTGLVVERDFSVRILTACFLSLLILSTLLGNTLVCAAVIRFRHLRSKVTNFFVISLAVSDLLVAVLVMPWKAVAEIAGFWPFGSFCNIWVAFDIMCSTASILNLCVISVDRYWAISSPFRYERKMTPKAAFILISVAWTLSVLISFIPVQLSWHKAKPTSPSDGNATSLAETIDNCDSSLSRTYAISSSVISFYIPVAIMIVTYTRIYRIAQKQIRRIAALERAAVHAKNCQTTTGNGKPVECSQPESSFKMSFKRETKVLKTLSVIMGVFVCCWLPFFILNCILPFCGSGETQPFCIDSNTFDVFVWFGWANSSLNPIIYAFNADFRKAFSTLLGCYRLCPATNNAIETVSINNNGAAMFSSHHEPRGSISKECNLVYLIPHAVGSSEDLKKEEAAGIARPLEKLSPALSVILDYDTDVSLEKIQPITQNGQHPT
Chain of Transporter, Norepinephrine (NET) (P23975 whole entry): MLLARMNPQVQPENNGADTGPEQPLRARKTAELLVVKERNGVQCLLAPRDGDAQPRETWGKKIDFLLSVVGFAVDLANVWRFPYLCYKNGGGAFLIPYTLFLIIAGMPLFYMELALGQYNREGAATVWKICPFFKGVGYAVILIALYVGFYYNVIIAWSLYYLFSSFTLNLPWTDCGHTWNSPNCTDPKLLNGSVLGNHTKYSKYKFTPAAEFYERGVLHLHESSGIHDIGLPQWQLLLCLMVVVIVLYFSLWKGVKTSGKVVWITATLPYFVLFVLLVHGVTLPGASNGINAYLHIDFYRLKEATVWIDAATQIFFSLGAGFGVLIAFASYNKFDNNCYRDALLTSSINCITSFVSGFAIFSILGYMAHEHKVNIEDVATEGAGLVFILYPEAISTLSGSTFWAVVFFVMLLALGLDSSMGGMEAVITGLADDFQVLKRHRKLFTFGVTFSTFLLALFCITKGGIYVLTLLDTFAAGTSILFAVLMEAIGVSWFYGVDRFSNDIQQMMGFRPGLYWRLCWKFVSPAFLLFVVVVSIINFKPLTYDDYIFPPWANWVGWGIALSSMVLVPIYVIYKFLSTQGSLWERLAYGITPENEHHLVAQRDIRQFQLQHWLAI
Chain of Trasnporter, Dopamine (DAT) (Q01959 whole entry): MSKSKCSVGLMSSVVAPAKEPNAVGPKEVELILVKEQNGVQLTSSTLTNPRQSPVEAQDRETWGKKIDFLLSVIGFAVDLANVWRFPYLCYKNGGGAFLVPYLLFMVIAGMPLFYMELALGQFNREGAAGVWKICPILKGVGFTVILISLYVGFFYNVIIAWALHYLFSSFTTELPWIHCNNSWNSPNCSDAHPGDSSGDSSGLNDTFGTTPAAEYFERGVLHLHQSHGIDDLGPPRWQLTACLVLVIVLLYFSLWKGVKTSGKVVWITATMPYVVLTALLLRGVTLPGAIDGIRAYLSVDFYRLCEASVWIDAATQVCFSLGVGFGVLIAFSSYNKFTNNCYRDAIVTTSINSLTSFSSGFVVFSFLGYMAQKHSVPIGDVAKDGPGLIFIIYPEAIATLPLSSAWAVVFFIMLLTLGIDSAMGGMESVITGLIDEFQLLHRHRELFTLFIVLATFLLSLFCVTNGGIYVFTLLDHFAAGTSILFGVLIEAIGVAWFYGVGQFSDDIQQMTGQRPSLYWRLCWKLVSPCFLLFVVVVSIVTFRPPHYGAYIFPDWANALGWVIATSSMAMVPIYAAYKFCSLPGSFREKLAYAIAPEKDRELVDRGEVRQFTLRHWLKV
Chain of Transporter, Serotonin (5-Hydroxytryptamine) (SERT) (P31645 whole entry): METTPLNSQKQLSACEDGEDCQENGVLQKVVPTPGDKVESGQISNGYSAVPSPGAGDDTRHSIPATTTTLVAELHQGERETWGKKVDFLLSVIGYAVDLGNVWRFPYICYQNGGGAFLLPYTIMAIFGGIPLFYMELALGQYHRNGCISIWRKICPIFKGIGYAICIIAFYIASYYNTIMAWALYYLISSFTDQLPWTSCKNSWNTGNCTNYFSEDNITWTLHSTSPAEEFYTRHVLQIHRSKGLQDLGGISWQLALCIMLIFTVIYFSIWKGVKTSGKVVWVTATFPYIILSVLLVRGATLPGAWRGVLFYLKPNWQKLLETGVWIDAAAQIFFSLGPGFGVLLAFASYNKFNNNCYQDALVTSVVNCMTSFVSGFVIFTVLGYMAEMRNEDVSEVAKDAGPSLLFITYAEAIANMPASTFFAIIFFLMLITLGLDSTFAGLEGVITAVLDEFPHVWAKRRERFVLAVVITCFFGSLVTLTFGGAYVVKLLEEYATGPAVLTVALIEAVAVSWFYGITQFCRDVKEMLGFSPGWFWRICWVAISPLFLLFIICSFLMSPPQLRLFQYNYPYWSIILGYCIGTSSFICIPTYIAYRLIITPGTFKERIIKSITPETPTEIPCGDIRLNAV

CN[C@H]1CC[C@@H](c2ccc(Cl)c(Cl)c2)c2ccc(C#CCCCO)cc21 [compound Ia, (1S-cis)-4-(3,4-dichlorophenyl)-7-(5-hydroxy-1-pentyn-1-yl)-1,2,3,4-tetrahydro-N-methyl-1-naphthalenamine hydroiodide]
anti-anxiety effect (BALB/c mice [1]): significant anti-anxiety effect | histopathology of heart, spleen, liver and kidney (ICR male mice): minimal to mild irritation | survival (ICR mice; acute oral up to 100 mg/kg): all animals survived | tolerability (ICR mice; acute oral up to 100 mg/kg): well tolerated | stimulation behavior (number of rearings) (ICR mice; 24 and 48hr after administration): significant increase | stimulation behavior (number of rearings) (ICR mice; after 72 hr): normalization | IC50 (Histamine H2): 1560 nM | nH (Histamine H2): 1.37 | inhibition at 3 µM (Histamine H2; 3 μM): 70% | Ki (Histamine H2; read-out: K1): 1280 nM | IC50 (Adrenergic α2A): 273 nM | nH (Adrenergic α2A): 0.930 | inhibition at 1 µM (Adrenergic α2A; 1 μM): 82% | Ki (Adrenergic α2A; read-out: K1): 102 nM | IC50 [2]: < 300 nM | inhibition at 0.03 µM ([2]; 0.03 μM): 51% | Ki ([2]; read-out: DAT final Ki): 29 nM | IC50 (Dopamine D1): 2700 nM | nH (Dopamine D1): 1.25 | inhibition at 10 µM (Dopamine D1; 10 μM): 84% | Ki (Dopamine D1; read-out: K1): 1350 nM | IC50 (Adrenergic α1A): 4200 nM | nH (Adrenergic α1A): 1.34 | inhibition at 10 µM (Adrenergic α1A; 10 μM): 73% | Ki (Adrenergic α1A; read-out: K1): 1700 nM | IC50 [3]: 623 nM | nH [3]: 0.977 | inhibition at 1 µM ([3]; 1 μM): 62% | Ki ([3]; read-out: K1): 618 nM | time after drug administration with significant effect on reaction to heating (BALBc male mice; followed for 6 hr, hydroiodide): 120 min and 240 min | latency to heat sensation (BALBc male mice; vs vehicle treated control): significantly increase | muscle strength and basic motor activity (BALB/c mice [4]): did not modify | IC50 [5]: < 300 nM | inhibition at 0.03 µM ([5]; 0.03 μM): 86% | Ki ([5]; read-out: SERT final Ki): 1.09 nM
